From ChEMBL document CHEMBL1201862, “PubChem BioAssay data set” (2004)
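Exposure lasted 48 hours, with cells grown in 96-well plates and compounds tested at five concentrations. GI50 is the concentration that inhibits growth by half.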 Active and inactive are the calls of the source. Rule as the data show it: active = GI50 up to about 1.1 µM and inactive = higher.

Columns and labels:
Assay in all cases: NCI-60 cell line screen, 48 h
K562 = tested on: K562
HCT-15 = tested on: HCT-15
NCI-H522 = tested on: NCI-H522
HCT-116 = tested on: HCT-116
T47D = tested on: T47D
U-251 = tested on: U-251
OVCAR-5 = tested on: OVCAR-5
SK-MEL-28 = tested on: SK-MEL-28
SK-MEL-2 = tested on: SK-MEL-2
SNB-19 = tested on: SNB-19
M14 = tested on: M14
UACC-257 = tested on: UACC-257
ACHN = tested on: ACHN
HOP-92 = tested on: HOP-92
A549 = tested on: A549
Malme-3M = tested on: Malme-3M
HCC 2998 = tested on: HCC 2998

| Compound | GI50 (K562) | GI50 (HCT-15) | GI50 (NCI-H522) | GI50 (HCT-116) | GI50 (T47D) | GI50 (U-251) | GI50 (OVCAR-5) | GI50 (SK-MEL-28) | GI50 (SK-MEL-2) | GI50 (SNB-19) | GI50 (M14) | GI50 (UACC-257) | GI50 (ACHN) | GI50 (HOP-92) | GI50 (A549) | GI50 (Malme-3M) | GI50 (HCC 2998) |
| --- | --- | --- | --- | --- | --- | --- | --- | --- | --- | --- | --- | --- | --- | --- | --- | --- | --- |
| CC(C)N(Cc1ccccc1)S(=O)(=O)c1nc(C(C)(C)C)n[nH]1 | > 100 µM (inactive) | > 100 µM | > 100 µM (inactive) | > 100 µM (inactive) | 92 µM (inactive) | > 100 µM (inactive) | > 100 µM (inactive) | > 100 µM (inactive) | > 100 µM (inactive) | > 100 µM (inactive) | > 100 µM (inactive) | 44.9 µM (inactive) | > 100 µM (inactive) | > 100 µM (inactive) | > 100 µM (inactive) | > 100 µM (inactive) |  |
| Cc1c2ccccc2c(CSC(=N)N)c2ccccc12 | 0.2 µM (active) | 0.269 µM | 0.0348 µM (active) | 0.189 µM (active) | 0.535 µM (active) | 0.176 µM (active) | 0.326 µM (active) | 0.27 µM (active) | 0.192 µM (active) | 0.228 µM (active) | 0.211 µM (active) | 0.187 µM (active) | 0.0728 µM (active) | 0.29 µM (active) | 0.216 µM (active) | 0.149 µM (active) |  |
| NC(Cc1ccccc1)C(=O)N[C@H]1c2ccsc2/C(=N/O)[C@H]1O (stereo not given in full) | > 100 µM (inactive) | > 100 µM |  | > 100 µM (inactive) | > 100 µM (inactive) | > 100 µM (inactive) | > 100 µM (inactive) | > 100 µM (inactive) | > 100 µM (inactive) |  | > 100 µM (inactive) | > 100 µM (inactive) |  | > 100 µM (inactive) | > 100 µM (inactive) | > 100 µM (inactive) | > 100 µM (inactive) |
| CC(=O)c1ccc2c3c1[C@@H]1O[C@@H]1c1cccc(c1-3)[C@@H]1O[C@H]21 | 4.47 µM (inactive) | 3.44 µM | 5.4 µM (inactive) | 4.54 µM (inactive) | 6.76 µM (inactive) | 6.62 µM (inactive) | 17.7 µM (inactive) | 3.5 µM (inactive) | 14.1 µM (inactive) | 20.3 µM (inactive) | 6.85 µM (inactive) | 16.9 µM (inactive) | 21.6 µM (inactive) | 13.3 µM (inactive) | 14.5 µM (inactive) | 7.4 µM (inactive) |  |
| Oc1ccc(/C=C/c2cccc(/C=C/c3ccc(O)c(O)c3)n2)cc1O | 3.86 µM (inactive) | 22.7 µM |  | 5.98 µM (inactive) | 3.4 µM (inactive) | 3.85 µM (inactive) | 9.95 µM (inactive) | 14.2 µM (inactive) | 11.7 µM (inactive) | 6.04 µM (inactive) | 5.58 µM (inactive) | 13.9 µM (inactive) | 5.14 µM (inactive) | 11.2 µM (inactive) | 5.25 µM (inactive) |  | 16.5 µM (inactive) |
| Cc1ccc(S(=O)(=O)NCCCSCCSCCCN)cc1 | > 100 µM (inactive) | > 100 µM | > 100 µM (inactive) | > 100 µM (inactive) | > 100 µM (inactive) | > 100 µM (inactive) |  | > 100 µM (inactive) |  | > 100 µM (inactive) | > 100 µM (inactive) | > 100 µM (inactive) | > 100 µM (inactive) | > 100 µM (inactive) | > 100 µM (inactive) |  | > 100 µM (inactive) |
| COc1ccc(Cc2nc3cc([N+](=O)[O-])ccc3n2C[C@@H]2CCCN3CCCCC23)cc1 (stereo not given in full) | 19.8 µM (inactive) | 23.4 µM |  | 14.7 µM (inactive) | 33.1 µM (inactive) | 20.9 µM (inactive) | 29.3 µM (inactive) | 17.7 µM (inactive) | 17.7 µM (inactive) | 19.8 µM (inactive) | 14.2 µM (inactive) | 15.8 µM (inactive) | 33.2 µM (inactive) | 12.8 µM (inactive) | 15.8 µM (inactive) | 16.7 µM (inactive) | 12.6 µM (inactive) |
| Cc1ccsc1/C=N/NC1=NCCN1 | > 100 µM (inactive) | > 100 µM |  | > 100 µM (inactive) | > 100 µM (inactive) | > 100 µM (inactive) | > 100 µM (inactive) | > 100 µM (inactive) | > 100 µM (inactive) | > 100 µM (inactive) | > 100 µM (inactive) | > 100 µM (inactive) | > 100 µM (inactive) | > 100 µM (inactive) | > 100 µM (inactive) | > 100 µM (inactive) | > 100 µM (inactive) |
| COC(CNC(=O)C(C)NC(=O)C(C)NC(=O)c1ccccc1)OC (stereo not given) | > 100 µM (inactive) | > 100 µM | > 100 µM (inactive) | > 100 µM (inactive) | > 100 µM (inactive) | > 100 µM (inactive) | > 100 µM (inactive) |  | > 100 µM (inactive) |  | > 100 µM (inactive) | > 100 µM (inactive) | > 100 µM (inactive) | > 100 µM (inactive) | > 100 µM (inactive) | > 100 µM (inactive) |  |
| O=C(CC(C(=O)c1cccs1)c1ccccc1)c1ccccc1O (stereo not given) | 3.1 µM (inactive) | 8 µM | 3.21 µM (inactive) | 4.74 µM (inactive) | 9.66 µM (inactive) | 9.93 µM (inactive) | > 100 µM (inactive) | 20 µM (inactive) | > 21.8 µM (inactive) | 23.9 µM (inactive) | 4 µM (inactive) | > 30.7 µM (inactive) | 11.3 µM (inactive) | 7.6 µM (inactive) | 13.1 µM (inactive) |  |  |
| CCOC(=O)c1c(-c2ccc(Cl)cc2)c(C#N)c(=S)n(C2OC(CO)C(O)C(O)C2O)c1-c1ccccc1 (stereo not given) | 19.5 µM (inactive) | 29.9 µM |  | 18.7 µM (inactive) | 23.2 µM (inactive) | 17 µM (inactive) | 21.8 µM (inactive) | 17.3 µM (inactive) | 24.1 µM (inactive) | 22.8 µM (inactive) | 19.7 µM (inactive) | 27.5 µM (inactive) | 35.6 µM (inactive) | 18.9 µM (inactive) | 34.2 µM (inactive) | 40.8 µM (inactive) | 28.9 µM (inactive) |
| CC(=O)Oc1ccc(-c2nnc(-c3ccc(OC(C)=O)cc3)nn2)cc1 | 55.5 µM (inactive) | 51.4 µM | > 100 µM (inactive) | > 100 µM (inactive) | > 100 µM (inactive) | > 100 µM (inactive) | > 100 µM (inactive) | > 100 µM (inactive) | > 100 µM (inactive) | > 100 µM (inactive) | > 100 µM (inactive) | > 100 µM (inactive) | 59 µM (inactive) | > 100 µM (inactive) | > 100 µM (inactive) | > 100 µM (inactive) |  |
| COc1cc(C2(O)c3ccccc3C3=NCCN32)cc(OC)c1OC (stereo not given) | > 100 µM (inactive) | > 100 µM |  | > 100 µM (inactive) | > 100 µM (inactive) | > 100 µM (inactive) |  | > 100 µM (inactive) | > 100 µM (inactive) | 79.4 µM (inactive) |  | > 100 µM (inactive) | > 100 µM (inactive) | > 100 µM (inactive) | > 100 µM (inactive) |  | > 100 µM (inactive) |
| Oc1ccc(/C=C/c2cc(O)cc(O)c2)cc1 [RESVERATROL] |  | > 100 µM |  |  | 8.65 µM (inactive) | > 100 µM (inactive) | > 100 µM (inactive) | > 100 µM (inactive) | 86.3 µM (inactive) | > 100 µM (inactive) | 49.8 µM (inactive) | > 100 µM (inactive) | 27 µM (inactive) | > 100 µM (inactive) | 51.6 µM (inactive) |  | 62.4 µM (inactive) |
